According to patent publication US6555710B1, “Aminobenzophenones as inhibitors of IL-1 β and TNF-α” (Leo Pharmaceutical Products Ltd a/s Lovens Kemiske Fabrik …, priority 1999, dated 2003):

What was measured:
Type in all cases: cell-based
IL-1β = test: Inhibition of IL-1β secretion in LPS stimulated peripheral blood mononuclear cells (ELISA); conditions: PBMC; LPS stimulated human peripheral blood mononuclear cells, 18 hours; read-out: The median inhibition concentration (IC50) of IL-1β
Experimental: (§1) To study the effect of the compound of the present invention in vitro the inhibition of the IL-1β and TNF-α secretion was measured using the following procedure:
(§2) Cytokine production was measured in the media from lipopolysaccharide (LPS) stimulated peripheral blood mononuclear cells. The mononuclear cells were isolated from human peripheral blood by Lymphoprep® (Nycomed, Norway) fractionation and suspended in RPMI 1640 (growth medium) with foetal calv serum (FCS, 2%), at a concentration of 5×10^5 cells/ml. The cells were incubated in 24-well tissue culture plates in 1 ml aliquots. Test compounds were dissolved in dimethylsulfoxide (DMSO, 10 mM) and were diluted with the medium. Compounds were added to the cells for 30 minutes, then LPS ([…] final concentration) was added. The plates were incubated for 18 hours, and the concentration of IL-1β and TNF-α in the medium was determined by enzyme-linked immunosorbent assays. The median inhibitory concentrations (IC50) of the compounds were calculated.

TNF-α = test: Inhibition of TNF-α secretion in LPS stimulated peripheral blood mononuclear cells (ELISA); conditions: PBMC; LPS stimulated human peripheral blood mononuclear cells, 18 hours; read-out: The median inhibition concentration (IC50) of TNF-α
Experimental: as §1, §2

[1] = tested on: Human polymorphonuclear (PMN) granulocytes; test: Inhibition of PMN superoxide secretion (ferricytochrome C reduction, TNF-α primed, fMLP stimulated); conditions: read-out: The median inhibition concentration (IC50) of PMN-superoxide
Experimental: The compounds of the present invention also show similar activities in the ability to inhibit PMN (polymorphonuclear) superoxide secretion which is also indicative of potentially useful anti-inflammatory drugs. The compounds were tested using the following procedure:
Human polymorphonuclear (PMN) granulocytes were isolated from human blood by dextran sedimentation, Lymphoprep® fractionation and hypotonic lysis of contaminating erythrocytes. Superoxide anion generation was measured as the superoxide dismutase inhibitable reduction of ferricytochrome C (Madhu, S. B. et al, Inflammation, 16, 241, (1992)). The cells were suspended in Hanks' balanced salt solution, and incubated for 10 minutes at 37° C. with test compounds. The cells were primed by the addition of TNF-α (3 ng/ml final concentration) for 10 minutes, and then ferricytochrome C, (final concentration 750 μg/ml), bovine serum albumin (BSA, final concentration 1 mg/ml) and formyl-methionyl-leucyl-phenylalanine (fMLP, final concentration 10^−7 M) were added for 3 minutes. The cells were chilled on ice, and were spun down. The optical densities in the cell-free supernatant was measured in a spectrophotometer. The median inhibitory concentration (IC50) of the compounds was calculated.

IC50 (IL-1β) [nM]	IC50 (TNF-α) [nM]	IC50 [1] [nM]	Compound
20	4	13	Cc1ccccc1C(=O)c1ccc(Nc2ccccc2NC(=O)C(F)(F)F)cc1Cl [ref. b), 2,2,2-Trifluoro-N-[2-[3-chloro-4-(2-methylbenzoyl)-phenylamino]-phenyl]acetamide, reference compound]
6.3	3.2	25	Cc1ccccc1C(=O)c1ccc(Nc2ccc(F)cc2NC(=O)C(F)(F)F)cc1Cl [Compound 102, 2,2,2-Trifluoro-N-[2-[3-chloro-4-(2-methylbenzoyl)-phenylamino]-5-fluoro-phenyl]acetamide]
32	6.3	13	Cc1ccccc1C(=O)c1ccc(Nc2ccc(Br)cc2NC(=O)C(F)(F)F)cc1Cl [Compound 101, 2,2,2-Trifluoro-N-[5-bromo-2-[3-chloro-4-(2-methylbenzoyl)-phenylamino]-phenyl]acetamide]
